This is an account of results in patent publication US10072023B2, “Diarylethene compounds and uses thereof” (SWITCH MATERIALS, INC., priority 2011, dated 2018).

This data set can be described thus: Absorbance at photostationary state (PSS) under simulated sunlight or 365 nm light. Type of data set: physicochemical. More on the design: λ max: unit not given here. Particulars: for Absorbance at PSS, 365 nm: 365 nm light source; for Absorbance at PSS, 365 nm / Absorbance at PSS, full / Absorbance at PSS, +UV / λ max: 2.0×10^−5 M in triglyme; for sensitivity index: ratio of PSS under 365 nm light to PSS under full spectrum light (without UV blocking film); for Absorbance at PSS, full: simulated sunlight (QSUN solar simulator), no UV blocking film; for Absorbance at PSS, +UV: simulated sunlight with UV blocking film (cutoff 370 nm); for λ max: wavelength of maximum absorbance in the visible range, ring-closed isoform. The method, then:
Absorbance at a PSS for selected compounds was measured at 2.0×10^−5 M in triglyme in the absence (full) or presence (+UV) of a UV blocking film with a UV cutoff wavelength of 370 nm (10% transmission at 370 nm), using simulated sunlight (QSUN solar simulator) as a light source, or a 365 nm light source; these PSS are reported in Tables 1.5. […] “Switch” refers to the ability (yes or no) of the compound to be reversibly converted under photochromic and electrochromic conditions between a ring-open isomer and ring-closed isomer.
A sensitivity index (SI) is a ratio of the PSS under 365 nm light to the PSS under full spectrum light (without UV blocking film). SI is an indicator of the sensitivity of the compound to the composition of the incident light (a change in the ratio of UV and visible components)—photochemical ring-opening is induced by a portion of the visible light spectrum.
Photostationary State (PSS) UV/Vis spectra are obtained using an OceanOptics™ Spectrophotometer until absorption in the visible region of the spectrum stabilizes. A 2×10^−5M solution of compound in solvent is prepared, and photofaded using visible light until absorption in the visible region of the spectrum stabilizes. The sample is then irradiated with simulated sunlight (QSUN SS-150 Solar Simulator with xenon arc lamp) until the absorption spectrum stabilizes. To obtain PSS in the presence of a UV blocking film, a second sample is prepared and irradiated as described, with a UV blocking film inserted in the light path when irradiating.

Consider `COc1ccc(-c2sc(-c3ccc(/C=C/c4ccccc4)cc3)cc2C2=C(c3cc(-c4ccc(/C=C/c5ccccc5)cc4)sc3-c3ccc(OC)cc3)C(F)(F)C(F)(F)C2(F)F)cc1` [S088, (E)-3,3′-(perfluorocyclopent-1-ene-1,2-diyl)bis(2-(4-methoxyphenyl)-5-(4-((E)-styryl)phenyl)thiophene)], for which the “Absorbance at PSS, 365 nm” value is 0.457; the sensitivity index is 2.26; the “Absorbance at PSS, full” value is given as 0.202; the “Absorbance at PSS, +UV” value is 0.132. The compound further returned a λ max of 656.

For the compound `COc1ccc2c(C3=C(c4c(-c5ccc(OC)c(OC)c5)oc5cc(OC)ccc45)C(F)(F)C(F)(F)C3(F)F)c(-c3ccc(OC)c(OC)c3)oc2c1` [S155, 3,3′-(perfluorocyclopent-1-ene-1,2-diyl)bis(2-(3,4-dimethoxyphenyl)-6-methoxybenzofuran)], the “Absorbance at PSS, 365 nm” value is recorded as 0.329; the sensitivity index was 4.06; the “Absorbance at PSS, full” value is reported as 0.081; the “Absorbance at PSS, +UV” value is 0.045. Moreover, the λ max was 516.

For the compound `CC(C)(C)c1ccc(-c2sc(C(C)(C)C)cc2C2=C(c3cc(C(C)(C)C)sc3-c3ccc(C(C)(C)C)s3)C(F)(F)C(F)(F)C2(F)F)s1` [S073, 3,3′-(perfluorocyclopent-1-ene-1,2-diyl)bis(5,5′-di-tert-butyl-2,2′-bithiophene)], the “Absorbance at PSS, 365 nm” value is 0.06; the sensitivity index is listed as 5.71; the “Absorbance at PSS, full” value is recorded as 0.0105; the “Absorbance at PSS, +UV” value was 0.006. The λ max is 550.

Turning to `CC(C)(C)c1ccc(-c2cc(C3=C(c4cc(-c5ccc(C(C)(C)C)s5)sc4-c4ccc(N5CCOCC5)cc4)C(F)(F)C(F)(F)C3(F)F)c(-c3ccc(N4CCOCC4)cc3)s2)s1` [S112, 4,4′-((4,4″-(perfluorocyclopent-1-ene-1,2-diyl)bis(5′-(tert-butyl)-[2,2′-bithiophene]-5,4-diyl))bis(4,1-phenylene))dimorpholine], the “Absorbance at PSS, 365 nm” value is on record as 0.318; the sensitivity index is listed as 1.14; the “Absorbance at PSS, full” value is listed as 0.278; the “Absorbance at PSS, +UV” value is listed as 0.246. The compound also showed a λ max of 663.

As to `CC(C)(C)c1ccc(-c2cc(C3=C(c4cc(-c5ccc(C(C)(C)C)s5)sc4-c4ccc(O)cc4)C(F)(F)C(F)(F)C3(F)F)c(-c3ccc(O)cc3)s2)s1` [S105, 4,4′-(4,4″-(perfluorocyclopent-1-ene-1,2-diyl)bis(5′-(tert-butyl)-[2,2′-bithiophene]-5,4-diyl))diphenol], the “Absorbance at PSS, 365 nm” value is reported as 0.272; the sensitivity index is listed as 1.38; the “Absorbance at PSS, full” value was 0.197; the “Absorbance at PSS, +UV” value is given as 0.134. Also, the λ max was 647.

With `COc1ccc(-c2sc(-c3ccc(/C=C/C=C/c4ccccc4)cc3)cc2C2=C(c3cc(-c4ccc(/C=C/C=C/c5ccccc5)cc4)sc3-c3ccc(OC)cc3)C(F)(F)C(F)(F)C2(F)F)cc1` [S089, 3,3′-(perfluorocyclopent-1-ene-1,2-diyl)bis(2-(4-methoxyphenyl)-5-(4-((1E,3E)-4-phenylbuta-1,3-dien-1-yl)phenyl)thiophene)], the “Absorbance at PSS, 365 nm” value is listed as 0.564; the sensitivity index was 4.12; the “Absorbance at PSS, full” value was 0.137; the “Absorbance at PSS, +UV” value is 0.126. The compound further had a λ max of 656.

Consider `COc1ccc(-c2cc(C3=C(c4cc(-c5ccc(C#N)cc5)sc4-c4ccc(OC)cc4)C(F)(F)C(F)(F)C3(F)F)c(-c3ccc(C#N)cc3)s2)cc1` [S087, 4-(3-(2-(5-(4-cyanophenyl)-2-(4-methoxyphenyl)thiophen-3-yl)-3,3,4,4,5,5-hexafluorocyclopent-1-en-1-yl)-5-(4-methoxyphenyl)thiophen-2-yl)benzonitrile], for which the “Absorbance at PSS, 365 nm” value is on record as 0.209; the sensitivity index is 1.92; the “Absorbance at PSS, full” value is 0.109; the “Absorbance at PSS, +UV” value is 0.055. Further, the λ max is reported as 628.

In the case of `COCCOc1ccc(-c2sc(-c3ccc(C(C)(C)C)s3)cc2C2=C(c3cc(-c4ccc(C(C)(C)C)s4)sc3-c3ccc(OCCOC)cc3)C(F)(F)C(F)(F)C2(F)F)cc1` [S104, 4,4″-(perfluorocyclopent-1-ene-1,2-diyl)bis(5′-(tert-butyl)-5-(4-(2-methoxyethoxy)phenyl)-2,2′-bithiophene)], the “Absorbance at PSS, 365 nm” value is recorded as 0.383; the sensitivity index is reported as 1.28; the “Absorbance at PSS, full” value is reported as 0.299; the “Absorbance at PSS, +UV” value was 0.203. Moreover, the λ max was 645.

As to `CC(C)(C)c1ccc(-c2cc(C3=C(c4cc(-c5sc(C(C)(C)C)cc5C(=O)O)sc4-c4ccc(C(=O)O)s4)C(F)(F)C(F)(F)C3(F)F)c(-c3ccc(C(=O)O)s3)s2)s1` [S124], the “Absorbance at PSS, 365 nm” value is 0.344; the sensitivity index is listed as 1.38; the “Absorbance at PSS, full” value is reported as 0.249; the “Absorbance at PSS, +UV” value is reported as 0.225. This compound had a λ max of 649.

Turning to `Cc1ccc(-c2ccc(-c3cc(C4=C(c5cc(-c6ccc(-c7ccc(C)s7)s6)sc5-c5ccc(C)s5)C(F)(F)C(F)(F)C4(F)F)c(-c4ccc(C)s4)s3)s2)s1` [S034, 3′,3″″′-(perfluorocyclopent-1-ene-1,2-diyl)bis(5,5″′-dimethyl-2,2′:5′,2″:5″,2″′-quaterthiophene)], the “Absorbance at PSS, 365 nm” value was 0.468; the sensitivity index is 1.73; the “Absorbance at PSS, full” value was 0.271; the “Absorbance at PSS, +UV” value is listed as 0.246. Besides, the λ max is on record as 690.

On to `N#Cc1ccc(-c2ccc(-c3cc(C4=C(c5cc(-c6ccc(-c7ccc(C#N)s7)s6)sc5-c5cccs5)C(F)(F)C(F)(F)C4(F)F)c(-c4cccs4)s3)s2)s1` [S037, 4″,4″″″-(perfluorocyclopent-1-ene-1,2-diyl)bis(([2,2′:5′,2″:5″,2″′-quaterthiophene]-5-carbonitrile))], for which the “Absorbance at PSS, 365 nm” value was 0.442; the sensitivity index is recorded as 1.18; the “Absorbance at PSS, full” value is listed as 0.375; the “Absorbance at PSS, +UV” value is given as 0.355. Also, the λ max is listed as 680.

With `C[Si](C)(C)c1ccc(-c2cc(C3=C(c4cc(-c5ccc([Si](C)(C)C)s5)sc4-c4ccc([Si](C)(C)C)s4)C(F)(F)C(F)(F)C3(F)F)c(-c3ccc([Si](C)(C)C)s3)s2)s1` [S135, 3′,3″″-(perfluorocyclopent-1-ene-1,2-diyl)bis(5,5″-bis(trimethylsilyl)-2,2′:5′,2″-terthiophene)], the “Absorbance at PSS, 365 nm” value was 0.387; the sensitivity index was 1.22; the “Absorbance at PSS, full” value is on record as 0.318; the “Absorbance at PSS, +UV” value is 0.224. Further, the λ max is given as 648.

As to `CC(C)(C)c1ccc(-c2cc(C3=C(c4cc(-c5ccc(C(C)(C)C)s5)sc4-c4ccc(O[Si](O[Si](C)(C)C)(O[Si](C)(C)C)O[Si](C)(C)C)cc4)C(F)(F)C(F)(F)C3(F)F)c(-c3ccc(O[Si](O[Si](C)(C)C)(O[Si](C)(C)C)O[Si](C)(C)C)cc3)s2)s1` [S118], the “Absorbance at PSS, 365 nm” value is 0.34; the sensitivity index is 1.52; the “Absorbance at PSS, full” value was 0.223; the “Absorbance at PSS, +UV” value was 0.124. Further, the λ max is on record as 648.

Take `FC1(F)C(c2cc(-c3ccccc3)sc2-c2ccccc2)=C(c2cc(-c3cccs3)sc2-c2cccs2)C(F)(F)C1(F)F` [S005, 3′-(2-(2,5-diphenylthiophen-3-yl)-3,3,4,4,5,5-hexafluorocyclopent-1-en-1-yl)-2,2′:5′,2″-terthiophene]: the “Absorbance at PSS, 365 nm” value is on record as 0.195; the sensitivity index is 2.71; the “Absorbance at PSS, full” value is on record as 0.072; the “Absorbance at PSS, +UV” value is listed as 0.028. The compound also gave a λ max of 618.

Take `COc1ccc(-c2sc(-c3ccc(C#N)cc3)cc2C2=C(c3cc(-c4ccc(C#N)cc4)sc3-c3ccc(OC)cc3)C(F)(F)C(F)(F)C2(F)F)cc1` [S085]: the “Absorbance at PSS, 365 nm” value is reported as 0.187; the sensitivity index is listed as 1.16; the “Absorbance at PSS, full” value is 0.161; the “Absorbance at PSS, +UV” value was 0.08. The same compound returned a λ max of 640.

As to `Cc1ccc(-c2cc(C3=C(c4cc(-c5ccc(C)s5)sc4-c4ccc(C)s4)C(F)(F)C(F)(F)C3(F)F)c(-c3ccc(C)s3)s2)s1` [S007, 3′,3″″-(perfluorocyclopent-1-ene-1,2-diyl)bis(5,5″-dimethyl-2,2′:5′,2″-terthiophene)], the “Absorbance at PSS, 365 nm” value is 0.353; the sensitivity index is 1.67; the “Absorbance at PSS, full” value was 0.212; the “Absorbance at PSS, +UV” value is 0.154. The compound further displayed a λ max of 650.
